Experimental data published in ChEMBL document CHEMBL5303573, “Mapping human microbiome drug metabolism by gut bacteria and their genes” (Nature, 2019).

Key:
[1] = The drug is tested on Anaerococcus hydrogenalis strain: DSM7454 for biotransformation. The drug concentrations were measured before and after a 12-h incubation by liquid-chromatography-coupled mass spectrometry (LC–MS); conditions: 2 µM
[2] = The drug is tested on Clostridium sporogenes strain: ATCC15579 for biotransformation. The drug concentrations were measured before and after a 12-h incubation by liquid-chromatography-coupled mass spectrometry (LC–MS); conditions: 2 µM
[3] = The drug is tested on Parabacteroides merdae strain: ATCC43184 for biotransformation. The drug concentrations were measured before and after a 12-h incubation by liquid-chromatography-coupled mass spectrometry (LC–MS); conditions: 2 µM
[4] = The drug is tested on Ruminococcus gnavus strain: ATCC29149 for biotransformation. The drug concentrations were measured before and after a 12-h incubation by liquid-chromatography-coupled mass spectrometry (LC–MS); conditions: mediterraneibacter gnavus, 2 µM
[5] = parabacteroides distasonis, 12 h, 2 µM
Description: The drug is tested on Parabacteroides distasonis strain: ATCC8503 for biotransformation. The drug concentrations were measured before and after a 12-h incubation by liquid-chromatography-coupled mass spectrometry (LC–MS)

[6] = The drug is tested on Enterococcus faecalis strain: V583 for biotransformation. The drug concentrations were measured before and after a 12-h incubation by liquid-chromatography-coupled mass spectrometry (LC–MS); conditions: 2 µM
[7] = The drug is tested on Providencia stuartii strain: ATCC25827 for biotransformation. The drug concentrations were measured before and after a 12-h incubation by liquid-chromatography-coupled mass spectrometry (LC–MS); conditions: 2 µM
[8] = The drug is tested on Enterobacter cancerogenus strain: ATCC35316 for biotransformation. The drug concentrations were measured before and after a 12-h incubation by liquid-chromatography-coupled mass spectrometry (LC–MS); conditions: 2 µM
[9] = segatella copri, 12 h, 2 µM
Description: The drug is tested on Prevotella copri strain: DSM18205 for biotransformation. The drug concentrations were measured before and after a 12-h incubation by liquid-chromatography-coupled mass spectrometry (LC–MS)

[10] = The drug is tested on Clostridium scindens strain: ATCC35704 for biotransformation. The drug concentrations were measured before and after a 12-h incubation by liquid-chromatography-coupled mass spectrometry (LC–MS); conditions: 2 µM
[11] = bacteroides fragilis, 12 h, 2 µM
Description: The drug is tested on Bacteroides fragilis strain: NCTC 9343 for biotransformation. The drug concentrations were measured before and after a 12-h incubation by liquid-chromatography-coupled mass spectrometry (LC–MS)

[12] = The drug is tested on Bacteroides fragilis strain: HMW615 for biotransformation. The drug concentrations were measured before and after a 12-h incubation by liquid-chromatography-coupled mass spectrometry (LC–MS); conditions: 2 µM
[13] = The drug is tested on Clostridium sp. strain: fecal isolate for biotransformation. The drug concentrations were measured before and after a 12-h incubation by liquid-chromatography-coupled mass spectrometry (LC–MS); conditions: 2 µM
[14] = The drug is tested on Coprococcus comes strain: ATCC27758 for biotransformation. The drug concentrations were measured before and after a 12-h incubation by liquid-chromatography-coupled mass spectrometry (LC–MS); assay type: ADME; design: dose 2 uM, timepoint 0 vs 12 hours; conditions: 2 µM
[15] = The drug is tested on Clostridium asparagiforme strain: DSM15981 for biotransformation. The drug concentrations were measured before and after a 12-h incubation by liquid-chromatography-coupled mass spectrometry (LC–MS); assay type: ADME; design: dose 2 uM, timepoint 0 vs 12 hours; conditions: enterocloster asparagiformis, 2 µM
[16] = limosilactobacillus reuteri cf48-3a, 12 h, 2 µM
Description: The drug is tested on Lactobacillus reuteri CF48-3A strain: BEI HM-102 for biotransformation. The drug concentrations were measured before and after a 12-h incubation by liquid-chromatography-coupled mass spectrometry (LC–MS)

[17] = The drug is tested on Collinsella aerofaciens strain: ATCC25986 for biotransformation. The drug concentrations were measured before and after a 12-h incubation by liquid-chromatography-coupled mass spectrometry (LC–MS); conditions: 2 µM
[18] = enterocloster bolteae, 12 h, 2 µM
Description: The drug is tested on Clostridium bolteae strain: ATCCBAA-613 for biotransformation. The drug concentrations were measured before and after a 12-h incubation by liquid-chromatography-coupled mass spectrometry (LC–MS)

[19] = The drug is tested on Odoribacter splanchnicus strain: fecal isolate for biotransformation. The drug concentrations were measured before and after a 12-h incubation by liquid-chromatography-coupled mass spectrometry (LC–MS); conditions: 2 µM
[20] = The drug is tested on Eubacterium hallii strain: DSM3353 for biotransformation. The drug concentrations were measured before and after a 12-h incubation by liquid-chromatography-coupled mass spectrometry (LC–MS); conditions: anaerobutyricum hallii, 2 µM

| SMILES | Bacterial Biotransformation [1] | Bacterial Biotransformation [2] | Bacterial Biotransformation [3] | Bacterial Biotransformation [4] | Bacterial Biotransformation [5] | Bacterial Biotransformation [6] | Bacterial Biotransformation [7] | Bacterial Biotransformation [8] | Bacterial Biotransformation [9] | Bacterial Biotransformation [10] | Bacterial Biotransformation [11] | Bacterial Biotransformation [12] | Bacterial Biotransformation [13] | Bacterial Biotransformation [14] | Bacterial Biotransformation [15] | Bacterial Biotransformation [16] | Bacterial Biotransformation [17] | Bacterial Biotransformation [18] | Bacterial Biotransformation [19] | Bacterial Biotransformation [20] |
| --- | --- | --- | --- | --- | --- | --- | --- | --- | --- | --- | --- | --- | --- | --- | --- | --- | --- | --- | --- | --- |
| O=C(O)CCC(=O)O.O=C(O[C@H]1CN2CCC1CC2)N1CCc2ccccc2[C@@H]1c1ccccc1 [SOLIFENACIN SUCCINATE] | Compound NOT metabolized | Compound NOT metabolized | Compound NOT metabolized | Compound NOT metabolized | Compound NOT metabolized | Compound NOT metabolized | Compound NOT metabolized | Compound NOT metabolized | Compound NOT metabolized | Compound NOT metabolized | Compound NOT metabolized | Compound NOT metabolized | Compound NOT metabolized | Compound NOT metabolized | Compound NOT metabolized | Compound NOT metabolized | Compound NOT metabolized | Compound NOT metabolized | Compound NOT metabolized | Compound NOT metabolized |
| C#C[C@]1(OC(C)=O)CC[C@H]2[C@@H]3CCC4=C[C@@H](OC(C)=O)CC[C@@H]4[C@H]3CC[C@@]21C [ETHYNODIOL DIACETATE] | Compound NOT metabolized | Compound NOT metabolized | Compound NOT metabolized |  | Compound NOT metabolized | Compound NOT metabolized | Compound NOT metabolized | Compound NOT metabolized | Compound NOT metabolized | Compound NOT metabolized | Compound NOT metabolized | Compound NOT metabolized | Compound NOT metabolized | Compound NOT metabolized | Compound NOT metabolized | Compound NOT metabolized | Compound NOT metabolized | Compound NOT metabolized | Compound NOT metabolized |  |
| C=CC[C@@H]1/C=C(\C)C[C@H](C)C[C@H](OC)[C@H]2O[C@@](O)(C(=O)C(=O)N3CCCC[C@H]3C(=O)O[C@H](/C(C)=C/[C@@H]3CC[C@@H](O)[C@H](OC)C3)[C@H](C)[C@@H](O)CC1=O)[C@H](C)C[C@@H]2OC.O [TACROLIMUS] | Compound metabolized | Compound metabolized | Compound NOT metabolized | Compound metabolized | Compound metabolized |  | Compound NOT metabolized | Compound metabolized | Compound NOT metabolized | Compound metabolized | Compound metabolized | Compound NOT metabolized | Compound metabolized | Compound metabolized | Compound metabolized | Compound metabolized | Compound metabolized | Compound metabolized | Compound metabolized | Compound metabolized |
| CNNCc1ccc(C(=O)NC(C)C)cc1 [PROCARBAZINE] | Compound NOT metabolized | Compound NOT metabolized | Compound NOT metabolized | Compound NOT metabolized | Compound NOT metabolized | Compound NOT metabolized | Compound NOT metabolized | Compound NOT metabolized | Compound NOT metabolized | Compound NOT metabolized | Compound NOT metabolized | Compound metabolized | Compound NOT metabolized | Compound NOT metabolized | Compound NOT metabolized | Compound NOT metabolized | Compound NOT metabolized | Compound NOT metabolized | Compound NOT metabolized | Compound NOT metabolized |
| CCC(COC(=O)c1cc(OC)c(OC)c(OC)c1)(c1ccccc1)N(C)C.O=C(O)/C=C\C(=O)O (stereo unspecified) | Compound metabolized | Compound metabolized | Compound metabolized | Compound metabolized | Compound metabolized | Compound metabolized | Compound NOT metabolized | Compound metabolized | Compound metabolized | Compound metabolized | Compound metabolized | Compound NOT metabolized | Compound metabolized | Compound metabolized | Compound metabolized | Compound metabolized |  | Compound metabolized | Compound metabolized | Compound metabolized |
| C[C@]12C=CC(=O)C=C1CC[C@@H]1[C@@H]2C(=O)C[C@@]2(C)[C@H]1CC[C@]2(O)C(=O)CO [PREDNISONE] | Compound NOT metabolized | Compound NOT metabolized | Compound NOT metabolized | Compound NOT metabolized | Compound NOT metabolized | Compound NOT metabolized | Compound NOT metabolized | Compound NOT metabolized | Compound NOT metabolized | Compound NOT metabolized | Compound NOT metabolized | Compound NOT metabolized | Compound NOT metabolized | Compound NOT metabolized | Compound NOT metabolized | Compound NOT metabolized | Compound NOT metabolized | Compound NOT metabolized | Compound NOT metabolized | Compound NOT metabolized |

Second part, the compound after the results:

| Bacterial Biotransformation [1] | Bacterial Biotransformation [2] | Bacterial Biotransformation [3] | Bacterial Biotransformation [4] | Bacterial Biotransformation [5] | Bacterial Biotransformation [6] | Bacterial Biotransformation [7] | Bacterial Biotransformation [8] | Bacterial Biotransformation [9] | Bacterial Biotransformation [10] | Bacterial Biotransformation [11] | Bacterial Biotransformation [12] | Bacterial Biotransformation [13] | Bacterial Biotransformation [14] | Bacterial Biotransformation [15] | Bacterial Biotransformation [16] | Bacterial Biotransformation [17] | Bacterial Biotransformation [18] | Bacterial Biotransformation [19] | Bacterial Biotransformation [20] | SMILES |
| --- | --- | --- | --- | --- | --- | --- | --- | --- | --- | --- | --- | --- | --- | --- | --- | --- | --- | --- | --- | --- |
| Compound metabolized | Compound NOT metabolized | Compound metabolized | Compound NOT metabolized | Compound metabolized | Compound NOT metabolized | Compound metabolized | Compound metabolized | Compound metabolized | Compound metabolized | Compound metabolized | Compound metabolized | Compound metabolized | Compound metabolized | Compound metabolized | Compound metabolized | Compound metabolized | Compound metabolized | Compound metabolized | Compound metabolized | CCCCC1=NC2(CCCC2)C(=O)N1Cc1ccc(-c2ccccc2-c2nnn[nH]2)cc1 [IRBESARTAN] |
| Compound NOT metabolized | Compound NOT metabolized | Compound NOT metabolized | Compound NOT metabolized | Compound NOT metabolized | Compound NOT metabolized | Compound NOT metabolized | Compound NOT metabolized | Compound NOT metabolized | Compound NOT metabolized | Compound NOT metabolized | Compound NOT metabolized | Compound NOT metabolized | Compound NOT metabolized | Compound NOT metabolized | Compound NOT metabolized | Compound NOT metabolized | Compound NOT metabolized | Compound NOT metabolized | Compound NOT metabolized | CN(C/C=C/C#CC(C)(C)C)Cc1cccc2ccccc12 [TERBINAFINE] |
